The target in this experiment is human 11β-HSD1 microsome fraction (Homo sapiens, UniProt P28845). The experiment can be described thus: Enzymatic 11beta-HSD1 test (SPA-based detection). It counts as biochemical. To be noted: human 11β-HSD1 microsomes, [1,2-3H]-cortisone, NADPH, 37° C., 1 hour. The procedure:
Enzymatic 11beta-HSD1 Test:
To measure the activity of the compounds, an SPA-based detection method (Solly et al. 2005) was employed. First of all, 20 μl of the human 11β-HSD1 microsome fraction (0.2 μg of protein), prepared in 50 mM HEPES, 0.1% BSA (w/v), were applied to a plate with 384 wells. The test compounds (0.09 μl) were applied to the assay plate in 100% DMSO. The reaction was started by addition of 20 μl of [1,2-^3H]-cortisone (0.1 μCi/[…]) in assay buffer comprising 25 mM HEPES, 100 mM KCl, 5 mM NaCl, 2 mM MgCl2 and 0.25 mM NADPH. The plate was agitated at 37° C. for 1 hour. At the same time, a stop solution comprising 20 mg/ml SPA-PVT beads, 1.6 mg/ml monoclonal cortisol antibody and 0.01 mM SSR110887 (inhibitor from the Biovitrium patent) in 50 mM HEPES, 1 M NaCl and 1 M KCl was stirred at room temperature. To stop the reaction, 25 μl of the stop solution were added to each well. The plate was agitated gently at room temperature for 1 further hour and then centrifuged at 500 gav for 1 minute, in order that the SPA beads could settle out. The plate was then read in a Wallac-1450-Microbeta unit with a standard SPA program (counting time 1 min/well). The comparative compound was glycyrrhetinic acid.
Protein and radioactive substrate were dispensed with a Biomek FX unit (Beckman Coulter) for handling liquids. […]

SMILES strings stand for the structures.

Chain of human 11β-HSD1 microsome fraction (P28845 whole entry): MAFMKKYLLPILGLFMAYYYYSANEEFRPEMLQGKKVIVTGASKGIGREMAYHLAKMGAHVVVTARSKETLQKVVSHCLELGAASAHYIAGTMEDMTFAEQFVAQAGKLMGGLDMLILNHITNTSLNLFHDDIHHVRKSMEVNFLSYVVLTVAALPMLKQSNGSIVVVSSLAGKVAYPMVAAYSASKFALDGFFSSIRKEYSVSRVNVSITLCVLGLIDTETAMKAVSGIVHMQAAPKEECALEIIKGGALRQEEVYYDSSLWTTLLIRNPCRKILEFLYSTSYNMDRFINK

`CCN1CC(c2ccc(C[C@@H]3C(C)(C)OC(NC45C[C@@H]6C[C@@H](C[C@H]4C6)C5)=NS3(=O)=O)c(F)c2)C1` [Example 6, {(R)-5-[4-(1-Ethyl-azetidin-3-yl)-2-fluoro-benzyl]-6,6-dimethyl-4,4-dioxo-5,6-dihydro-4H-4lambda6-[1,4,3]oxathiazin-2-yl}-(2R,3aS,5S,6aS)-hexahydro-2,5-methano-pentalen-3a-yl-amine] came in with an IC50 of 3 nM.

By IC50 is commonly meant the midpoint of a concentration-inhibition curve. Read a high IC50 as a need for much substance.
